Laboratory results reported in US11291671B2, “Solid drug implants for intracochlear delivery of therapeutics for the treatment of Otic disorders” (O-Ray Pharma, Inc., priority 2012, dated 2022).

Experiments:
guinea pig cochleae [1] = assay: Intracochlear fluticasone proprionate for otoprotection of cisplatin dependent hearing loss, click ABR threshold; type: in vivo; conditions: control ear (no implant), day 28, after cisplatin; baseline day 14 23.9±2.3 dB; P≤0.0001
Description: Surgery: Albino guinea pigs were used for the single dose intracochlear implantation experiment. The guinea pigs received a single implant in one of their ears, and the other ear was used as internal control. Under general anesthesia, a postauricular incision was made over the bulla in the experimental ear. A small hole was drilled through the bulla using a posterior approach. The ear was positioned with the round window facing horizontally and superiorly. A 32-gauge needle was used to puncture the round window and the particle was put in contact with the perilymph in the scala tympani. A blood drop was placed over the round window injection site to avoid leakage of perilymphatic fluids and a suture was used to close the wound. Auditory Measurements; see FIGS. 5A and 5B: Animals were anesthetized for auditory testing. […] Lower ABR LS Means reading indicates better hearing. Error bars indicate Standard Error. Study Design: Particles were created and implanted into guinea pig cochleae as described in Examples 1-2. The study design is as follows: • Each animal: one ear implanted with extended release fluticasone particle (“implant ear”), other ear served as internal control (“control ear”). • Hearing was assessed via click (broad frequency) ABRs and DPOAE

guinea pig cochleae [2] = assay: Intracochlear fluticasone proprionate for otoprotection of cisplatin dependent hearing loss, DPOAE; type: in vivo; conditions: 14 days after cisplatin application, no implant
Description: Surgery: Albino guinea pigs were used for the single dose intracochlear implantation experiment. The guinea pigs received a single implant in one of their ears, and the other ear was used as internal control. Under general anesthesia, a postauricular incision was made over the bulla in the experimental ear. A small hole was drilled through the bulla using a posterior approach. The ear was positioned with the round window facing horizontally and superiorly. A 32-gauge needle was used to puncture the round window and the particle was put in contact with the perilymph in the scala tympani. A blood drop was placed over the round window injection site to avoid leakage of perilymphatic fluids and a suture was used to close the wound. DPOAE (2f1-f2) Input/output functions were recorded. Response amplitude was recorded as a function of L2 (L1-L2=10 dB); primaries incremented together in 5 dB steps (from 20 to 80 dB SPL) spanning the frequency range f2=5.6-45.2 kHz (f2/f1=1.2). […] Higher DPOAE reading indicates better hearing. Error bars indicate Standard Error. […] The study design is as follows: • Each animal: one ear implanted with extended release fluticasone particle (“implant ear”), other ear served as internal control (“control ear”). • Hearing was assessed via click (broad frequency) ABRs and DPOAE

patients = conditions: cited from earlier work

| Compound | ABR threshold, control ears following cisplatin treatment at day 28 (guinea pig cochleae [1]) [dB] | DPOAE responses, control ears (guinea pig cochleae [2]) | Patients displaying some vestibular impairment (patients; one gram daily for 60 to 120 days) [%] | Incidence of vestibular impairment (patients; two grams per day) [%] |
| --- | --- | --- | --- | --- |
| N.N.[Cl][Pt][Cl] [cisplatin, cis-diammine-dichloroplatinum(II)] | 40.7±2.5 | absent | – | – |
| [H]/N=C(/N)N[C@H]1[C@H](O)[C@@H](O)[C@H](O[C@@H]2O[C@@H](C)[C@](O)(C=O)[C@H]2O[C@@H]2O[C@@H](CO)[C@H](O)[C@@H](O)[C@@H]2NC)[C@@H](N/C(N)=N\[H])[C@@H]1O [streptomycin] | – | – | 25 | 75 |
